Measured values reported in PubChem BioAssay (NCI).
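Cultured in 96-well plates, cells were exposed to test compound for 48 hours across five concentrations. TGI: total growth inhibition.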

Legend:
Experiment in all cases: inhibition of tumour cell growth, NCI panel, 48 h
[1] = system: 786-0 renal
[2] = system: A498 renal
[3] = system: A549 NSCLC
[4] = system: ACHN renal
[5] = system: CAKI-1 renal
[6] = system: CCRF-CEM leukemia
[7] = system: COLO 205 colon
[8] = system: DLD-1 colon
[9] = system: DMS 114 small cell lung
[10] = system: DMS 273 small cell lung
[11] = system: EKVX NSCLC
[12] = system: HCC-2998 colon
[13] = system: HCT-116 colon
[14] = system: HCT-15 colon
[15] = system: HL-60(TB) leukemia
[16] = system: HOP-18 NSCLC
[17] = system: HOP-62 NSCLC
[18] = system: HOP-92 NSCLC
[19] = system: HT29 colon
[20] = system: IGROV1 ovarian
[21] = system: K-562 leukemia
[22] = system: KM12 colon
[23] = system: KM20L2 colon
[24] = system: LOX IMVI melanoma
[25] = system: LXFL 529 NSCLC
[26] = system: M14 melanoma
[27] = system: M19-MEL melanoma
[28] = system: MALME-3M melanoma
[29] = system: MOLT-4 leukemia
[30] = system: NCI-H226 lung
[31] = system: NCI-H23 lung
[32] = system: NCI-H460 lung
[33] = system: NCI-H522 lung
[34] = system: OVCAR-3 ovarian
[35] = system: OVCAR-4 ovarian
[36] = system: OVCAR-5 ovarian
[37] = system: OVCAR-8 ovarian
[38] = system: RPMI-8226 leukemia
[39] = system: RXF 393 renal
[40] = system: RXF-631 renal
[41] = system: SF-268 CNS
[42] = system: SF-295 CNS
[43] = system: SF-539 CNS
[44] = system: SK-MEL-2 melanoma
[45] = system: SK-MEL-28 melanoma
[46] = system: SK-MEL-5 melanoma
[47] = system: SK-OV-3 ovarian
[48] = system: SN12C renal
[49] = system: SNB-19 CNS
[50] = system: SNB-75 CNS
[51] = system: SNB-78 CNS
[52] = system: SR leukemia
[53] = system: SW-620 colon
[54] = system: TK-10 renal
[55] = system: U251 CNS
[56] = system: UACC-257 melanoma
[57] = system: UACC-62 melanoma
[58] = system: UO-31 renal

With O=C(NO)C(=O)Nc1cc(Cl)ccc1Cl the TGI [1] was > 100 µM, the TGI [2] was > 100 µM and the TGI [3] was > 100 µM. The TGI [4] was > 100 µM, the TGI [5] was > 100 µM and the TGI [6] was > 100 µM. For the same compound, the TGI [7] was > 100 µM, the TGI [8] was > 100 µM and the TGI [9] was > 100 µM. For the same compound, the TGI [10] was > 100 µM, the TGI [11] was > 100 µM and the TGI [12] was > 100 µM. For the same compound, the TGI [13] was > 100 µM, the TGI [14] was > 100 µM and the TGI [15] was > 100 µM. For the same compound, the TGI [16] was > 100 µM, the TGI [17] was > 100 µM and the TGI [18] was > 100 µM. The TGI [19] was > 100 µM, the TGI [20] was 55.3 µM and the TGI [21] was > 100 µM. The TGI [22] was > 100 µM, the TGI [23] was > 100 µM and the TGI [24] was > 100 µM. For the same compound, the TGI [25] was > 100 µM, the TGI [26] was > 100 µM and the TGI [27] was > 100 µM. The TGI [28] was > 100 µM, the TGI [29] was > 100 µM and the TGI [30] was > 100 µM. For the same compound, the TGI [31] was > 100 µM, the TGI [32] was > 100 µM and the TGI [33] was 49.1 µM. The TGI [34] was > 100 µM, the TGI [35] was > 100 µM and the TGI [36] was > 100 µM. The TGI [37] was > 100 µM, the TGI [38] was > 100 µM and the TGI [39] was > 100 µM. For the same compound, the TGI [40] was > 100 µM, the TGI [41] was > 100 µM and the TGI [42] was > 100 µM. For the same compound, the TGI [43] was > 100 µM, the TGI [44] was > 100 µM and the TGI [45] was > 100 µM. The TGI [46] was > 100 µM, the TGI [47] was > 100 µM and the TGI [48] was > 100 µM. The TGI [49] was > 100 µM, the TGI [50] was > 100 µM and the TGI [51] was > 100 µM. The TGI [52] was > 100 µM, the TGI [53] was > 100 µM and the TGI [54] was > 100 µM. The TGI [55] was > 100 µM, the TGI [56] was > 100 µM and the TGI [57] was > 100 µM. It also gave a TGI [58] of 51 µM.
In the case of COC(=O)C1Cc2c([nH]c3ccccc23)C(C2CCCCC2)N1 (stereo unspecified), the TGI [1] is reported as > 100 µM, the TGI [3] is reported as > 100 µM and the TGI [4] is reported as > 100 µM. The TGI [5] was > 100 µM, the TGI [6] was > 100 µM and the TGI [7] was > 100 µM. For the same compound, the TGI [8] was > 100 µM, the TGI [9] was > 100 µM and the TGI [10] was > 100 µM. The TGI [11] was > 100 µM, the TGI [12] was > 100 µM and the TGI [13] was > 100 µM. For the same compound, the TGI [14] was > 100 µM, the TGI [15] was > 100 µM and the TGI [16] was > 100 µM. For the same compound, the TGI [18] was > 100 µM, the TGI [19] was > 100 µM and the TGI [20] was > 100 µM. The TGI [21] was > 100 µM, the TGI [22] was > 100 µM and the TGI [23] was > 100 µM. For the same compound, the TGI [24] was > 100 µM, the TGI [25] was > 100 µM and the TGI [26] was > 100 µM. The TGI [27] was > 100 µM, the TGI [28] was > 100 µM and the TGI [29] was > 100 µM. The TGI [30] was > 100 µM, the TGI [31] was > 100 µM and the TGI [32] was > 100 µM. The TGI [33] was > 100 µM, the TGI [34] was > 100 µM and the TGI [35] was > 100 µM. For the same compound, the TGI [36] was > 100 µM, the TGI [37] was > 100 µM and the TGI [40] was > 100 µM. The TGI [41] was > 100 µM, the TGI [42] was > 100 µM and the TGI [43] was > 100 µM. The TGI [44] was > 100 µM, the TGI [45] was > 100 µM and the TGI [46] was > 100 µM. The TGI [47] was > 100 µM, the TGI [48] was > 100 µM and the TGI [49] was > 100 µM. For the same compound, the TGI [50] was > 100 µM, the TGI [52] was > 100 µM and the TGI [53] was > 100 µM. The TGI [54] was > 100 µM, the TGI [55] was > 100 µM and the TGI [56] was > 100 µM. The TGI [57] was > 100 µM and the TGI [58] was > 100 µM.
